From patent US8722674B2, “1,3,5-triazine-2,4,6-triamine compound or pharmaceutical acceptable salt thereof, and pharmaceutical composition comprising the same” (Hanall Biopharma Co., Ltd., priority 2007, dated 2014)

Legend:
HepG2 cells [1] = test: Measurement of cholesterol synthesis ability (Amplex red fluorescence); type: cell-based; conditions: for activity at 100 µM: Homo sapiens, HepG2 cells, 24 h treatment, lower is better, read-out: cholesterol synthesis ability, % control
Source text: (§1) Metformin that is widely used in type 2 diabetic patients inhibits the formation of glucose, the synthesis of cholesterol and triglyceride in liver cells and promote the absorption of glucose from blood vessels in the muscle cells. […] In the case of the ability to form cholesterol, triglyceride and glucose, the lower the numerical value, the better the effect. Numerical values for a control group become reference values.
(§2) As a hepatic cell model, HepG2 cells were used to measure cholesterol synthesis inhibitory ability, which is the important function of AMPK. The hepatic cell model HepG2 cells were cultured in 1% serum-containing media for 24 hours, and then treated with each of the compounds for 24 hours. Then, the cells were disrupted with lysis buffer (0.1 M potassium phosphate, pH 7.4, 0.05 M NaCl, 5 mM cholic acid, 0.1% Triton X-100). To the disrupted cells, the same volume of a reaction solution (2 U/ml cholesterol oxidizing agent, 2 U/ml peroxidase, 0.2 U/ml cholesterol esterase, and 300 μM Amplex red as a fluorescent factor) was added and allowed to react at 37° C. for 30 minutes. After completion of the reaction, the cells were measured with a fluorometer at a wavelength of 560/590 nm (ex/em), thus quantifying the amount of […] formed in the cells. A lower measurement value means an increased lipid production inhibitory ability.

HepG2 cells [2] = test: Measurement of triglyceride (Amplex red fluorescence); type: cell-based; conditions: Homo sapiens, 100 uM, 24 h treatment, lower is better, read-out: triglyceride synthesis ability, % control
Procedure: as §1
as §2, with “model,” for “model, HepG2 cells were used to measure cholesterol synthesis inhibitory ability, which is the important function of AMPK. The hepatic cell model”, “(0.1M” for “(0.1 M”, “(0.76” for “(2”, “glycerol kinase, […] peroxidase, 22.2 U/ml glycerol” for “cholesterol”, “agent,” for “agent, 2 U/ml peroxidase, 0.2 U/ml cholesterol esterase,”

HepG2 cells [3] = test: Measurement of gluconeogenesis (14C-lactate); type: cell-based; conditions: Homo sapiens, 24 h treatment, lower is better, read-out: gluconeogenesis (glucose synthesis ability), % control
Procedure: as §1
As a hepatic cell model, HepG2 cells were cultured in 10% serum-containing high glucose media, and then treated with each of the compounds for 24 hours. Then, the cells were treated with 0.5 uCi 14C-lactate and 10 mM L-lactate, and cultured for 4 hours. After cultivation, the media of the cells were removed, and the cells were washed with PBS, treated with 0.1N NaOH and left to stand at room temperature for 1 hour. Then, the cells were neutralized with 1N HCl, and the amount of glucose formed in the cells was measured with a liquid scintillation counter. […] A lower measurement value means a stronger blood glucose lowering activity.

C2C12 cells = test: Measurement of glucose absorption (3H-deoxy-glucose); type: cell-based; conditions: for activity at 200 µM / activity at 100 µM: Mus musculus, differentiated C2C12 muscle cells, with 1 μM insulin 24 h, higher is better, read-out: glucose absorption, % control
Source text: as §1
As a muscle cell model, C2C12 cells were induced to differentiate into muscle cells in 2% bovine fetal serum for 6 days. The C2C12 cells which differentiated into muscle cells were treated with each of the compounds in serum-free low glucose media, and then cultured with 1 μM of insulin for 24 hours. After cultivation, the cells were treated with 1 μCi 3H-deoxy-glucose and 10 μM deoxy-glucose at 37° C. for 15 minutes. After treatment, the media were removed, and the cells were washed twice with PBS. The washed cells were treated with 0.1 N NaOH and neutralized with 1N HCl. The amount of glucose absorbed into the cells was measured with a liquid scintillation counter. The effect of the compounds was determined by selecting a compound showing an absorption effect of at least 200%, dividing the absorption effect by the average percent of the control group, and then multiplying the divided value by […]. A higher measurement value means a stronger ability to reduce insulin resistance.

Row | Compound | melting point [°C] | activity at 100 µM (HepG2 cells [1]) [%] | activity at 100 µM (HepG2 cells [2]) [%] | activity at 200 µM (HepG2 cells [3]) [%] | activity at 200 µM (C2C12 cells) [%] | activity at 100 µM (HepG2 cells [3]) [%] | activity at 100 µM (C2C12 cells) [%] | effect on cholesterol synthesis, times better than the control group (HepG2 cells [1]; by comparison of used amounts vs control group (metformin 2 mM)) | effect of reducing insulin resistance, times better than the control group (C2C12 cells; absorption effect divided by average percent of control group (metformin 2 mM), multiplied by 20)
1 | Nc1nc(N)nc(NCCc2ccccc2)n1 [Example 13, N2-phenethyl-1,3,5-triazine-2,4,6-triamine] | 169.9 to 171.8 | 92.3 | 103 | 99.6 | 115 |  |  |  | 
2 | COc1cc(Nc2nc(N)nc(N(C)C)n2)cc(OC)c1 [Example 16, N2-(3,5-dimethoxyphenyl)-N4,N4-dimethyl-1,3,5-triazine-2,4,6-triamine] | 148 to 150 | 66.9 | 79.5 |  |  | 87.6 | 63.2 |  | 
3 | CC(Nc1nc(N)nc(N(C)C)n1)c1cccc2ccccc12 (centres unmarked) [Example 21, N2,N2-dimethyl-N4-(1-(naphthalen-1-yl)ethyl)-1,3,5-triazine-2,4,6-triamine] | 73 to 76 | 56.6 | 71 |  |  | 42.1 | 140 |  | 
4 | CN(C)c1nc(N)nc(Nc2ccc3c(c2)CCC3)n1 [Example 23, N2-(2,3-dihydro-1H-inden-5-yl)-N4,N4-dimethyl-1,3,5-triazine-2,4,6-triamine] | 245 to 255 | 63 | 37.2 |  |  | 10.7 | 1.91 |  | 
5 | CN(C)c1nc(N)nc(Nc2cc(Cl)cc(Cl)c2)n1 [Example 24, N2-(3,5-dichlorophenyl)-N4,N4-dimethyl-1,3,5-triazine-2,4,6-triamine] | 240 to 264 | 55.8 | 41.7 |  |  | 49.9 | 136 |  | 
6 | CN(C)c1nc(N)nc(Nc2ccc3c(c2)-c2ccccc2C3)n1 [Example 25, N2-(9H-fluoren-3-yl)-N4,N4-dimethyl-1,3,5-triazine-2,4,6-triamine] | 282 to 290 | 76.8 | 30.2 |  |  | 49.5 | 107 | at least 20 times | 
7 | CN(C)c1nc(N)nc(N2CCCCCC2)n1 [Example 34, 6-(azepan-1-yl)-N2,N2-dimethyl-1,3,5-triazine-2,4-diamine] | 240 to 249 | 52.6 | 70.9 |  |  | 39.4 | 203 |  | about 12 times
8 | CN(C)c1nc(N)nc(Nc2ccc(-c3ccccc3)cc2)n1 [Example 37, N2-(biphenyl-4-yl)-N4,N4-dimethyl-1,3,5-triazine-2,4,6-triamine] | 190 to 201 | 66.8 | 80.6 |  |  | 85.7 | 151 |  | 
9 | CN(C)c1nc(N)nc(Nc2ccccc2-c2ccccc2)n1 [Example 38, N2-(biphenyl-2-yl)-N4,N4-dimethyl-1,3,5-triazine-2,4,6-triamine] | 196 to 216 | 55.1 | 63.3 |  |  | 13.8 | 92.1 |  | 

Second part, led by results:

Row | melting point [°C] | Compound | activity at 100 µM (HepG2 cells [1]) [%] | activity at 100 µM (HepG2 cells [2]) [%] | activity at 200 µM (HepG2 cells [3]) [%] | activity at 200 µM (C2C12 cells) [%] | activity at 100 µM (HepG2 cells [3]) [%] | activity at 100 µM (C2C12 cells) [%] | effect on cholesterol synthesis, times better than the control group (HepG2 cells [1]; by comparison of used amounts vs control group (metformin 2 mM)) | effect of reducing insulin resistance, times better than the control group (C2C12 cells; absorption effect divided by average percent of control group (metformin 2 mM), multiplied by 20)
10 | 151.6 to 152 | CN(C)c1nc(N)nc(NCc2ccoc2)n1 [Example 12, N2-(furan-3-ylmethyl)-N4,N4-dimethyl-1,3,5-triazine-2,4,6-triamine] | 92.4 | 87.7 | 78.6 | 180 |  |  |  | 
11 | 139 to 143 | Cc1ccc(CNc2nc(N)nc(N(C)C)n2)cc1 [Example 14, N2,N2-dimethyl-N4-(4-methylbenzyl)-1,3,5-triazine-2,4,6-triamine] | 87.8 | 92 |  |  | 75.4 | 113 |  | 
12 | 173 to 176 | COc1ccc(Nc2nc(N)nc(N(C)C)n2)cc1 [Example 15, N2,N2-dimethyl-N4-(4-methoxyphenyl)-1,3,5-triazine-2,4,6-triamine] | 57.1 | 53.6 |  |  | 114 | 91.1 |  | 
13 | 105 to 108 | CN(C)c1nc(N)nc(Nc2ccc(Br)cc2)n1 [Example 18, N2-(4-bromophenyl)-N4,N4-dimethyl-1,3,5-triazine-2,4,6-triamine] | 66.4 | 44.6 |  |  | 67 | 91.5 |  | 
14 | 213 to 215 | COc1ccc(OC)c(Nc2nc(N)nc(N(C)C)n2)c1 [Example 19, N2-(2,5-dimethoxyphenyl)-N4,N4-dimethyl-1,3,5-triazine-2,4,6-triamine] | 69.2 | 74.5 |  |  | 116 | 131 |  | 
15 | 164 to 167 | CN(C)c1nc(N)nc(Nc2ccc(Cl)cc2)n1 [Example 20, N2-(4-chlorophenyl)-N4,N4-dimethyl-1,3,5-triazine-2,4,6-triamine] | 56.3 | 41.4 |  |  | 84.9 | 132 |  | 
16 | 130 to 145 | CCCc1ccccc1Nc1nc(N)nc(N(C)C)n1 [Example 26, N2,N2-dimethyl-N4-(2-propylphenyl)-1,3,5-triazine-2,4,6-triamine] | 62.9 | 38.6 |  |  | 24.7 | 170 |  | 
17 | 155 to 165 | CCCc1ccc(Nc2nc(N)nc(N(C)C)n2)cc1 [Example 27, N2,N2-dimethyl-N4-(4-propylphenyl)-1,3,5-triazine-2,4,6-triamine] | 63.5 | 67.4 |  |  | 30.9 | 4.05 |  | 
18 | 142 to 149 | CCCCCCNc1nc(N)nc(N(C)C)n1 [Example 29, N2-hexyl-N4,N4-dimethyl-1,3,5-triazine-2,4,6-triamine] | 63.5 | 41.2 |  |  | 16.3 | 94.5 |  | 
19 | 182 to 199 | CN(C)c1nc(N)nc(Nc2ccc(F)cc2)n1 [Example 31, N2-(4-fluorophenyl)-N4,N4-dimethyl-1,3,5-triazine-2,4,6-triamine] | 67.2 | 69.8 |  |  | 80.7 | 131 |  | 
20 | 166 to 168 | Cc1cccc(Nc2nc(N)nc(N(C)C)n2)c1 [Example 32, N2,N2-dimethyl-N4-m-tolyl-1,3,5-triazine-2,4,6-triamine] | 34.2 | 66.6 |  |  | 66.8 | 118 |  | 
21 | 122 to 143 | Cc1ccccc1Nc1nc(N)nc(N(C)C)n1 [Example 33, N2,N2-dimethyl-N4-o-tolyl-1,3,5-triazine-2,4,6-triamine] | 65.8 | 91.9 |  |  | 95.6 | 148 |  | 
